The values that follow come from patent publication US20220274947A1, “NOVEL HETEROARYL-TRIAZOLE COMPOUNDS AS PESTICIDES” (Bayer Aktiengesellschaft, priority 2019, published 2022).

Holding throughout (format): in vivo
Assay [1] concerns Anopheles funestus strain FUMOZ-R. The experiment in a line: Anopheles funestus test (ANPHFU surface treatment & contact assay). The conditions noted are these: exposure 30 minutes, 24 hours after contact, read-out: efficacy (mortality). Here is the method:
Anopheles funestus Test (ANPHFU Surface Treatment & Contact Assay) Solvent: Aceton+2000 ppm rapeseed oil methyl ester (RME)
In order to produce a sufficient, active ingredient containing solution it is necessary to solve the test compound in the solvent-mix (acetone at 2 mg/ml/RME 2000 ppm). This solution is pipetted onto a glazed tile and after evaporation of the acetone, adult mosquitoes of the species Anopheles funestus strain FUMOZ-R (Hunt et al., Med. Vet. Entomol. 2005 September; 19(3): 271-275) are placed onto the dried surface. The exposure time is 30 minutes. Mortality in percent (%) is determined 24 hours after contact of the insects to the treated surface. 100% mortality means that all tested insects are dead, whereas 0% means that no insect died.

Assay [2] deals with Rhipicephalus sanguineus. The experiment in a line: Rhipicephalus sanguineus in-vitro contact test, adult brown dog ticks (RHIPSA Cont). The conditions noted are these: 48 h, after 48 hours, read-out: activity (efficacy: 100% means all ticks are dead or moribund); for pest or weed control at 1 µg/cm2, 100 g/ha: application rate 1 μg/cm^2 (=100 g/ha); for pest or weed control at 5 µg/cm2, 500 g/ha: application rate 5 μg/cm^2 (=500 g/ha). In outline: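 Mortality of adult R. sanguineus was judged 48 h after contact with acetone-applied residues on glass tube walls. Ticks that stayed immotile or moved without coordination when heated to 45–50 °C (max 5 min) counted as dead or moribund.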

Assay [3] deals with Rhipicephalus microplus. The experiment in a line: Rhipicephalus (Boophilus) microplus in-vitro contact test, larval cattle tick, strain Parkhurst (BOOPMI Cont). The conditions noted are these: application rate 5 μg/cm^2 (=500 g/ha), tick larvae, after 48 hours, read-out: activity (efficacy: 100% means all larvae are dead or moribund). In outline:
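Acetone solutions dried onto glass tube walls (900 ppm giving 5 μg/cm^2); 20-50 pyrethroid-resistant Parkhurst larvae added per tube and held 48 h at 27° C., 85% relative humidity. Efficacy scored by negative geotaxis as % dead or moribund larvae.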

Assay [4] relates to Spodoptera frugiperda. The experiment in a line: Spodoptera frugiperda spray test. The settings on record: in Zea mays, 168 h, read-out: activity (mortality). The essentials: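 Maize leaf sections were sprayed with compound formulated in acetone/DMF and diluted in water containing 1000 ppm emulsifier. Dried leaves were infested with fall armyworm larvae, and percent mortality was scored after 7 days.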

The subject of assay [5] is Rhipicephalus microplus. The experiment in a line: Rhipicephalus (Boophilus) microplus injection test (BOOPMI Inj). The settings on record: 168 h, injection into adult engorged female ticks, egg deposition after 7 days, read-out: activity (efficacy: 100% means all eggs are infertile); for pest or weed control at 0.004 mg: application rate 4 μg/tick; for pest or weed control at 0.02 mg: application rate 20 μg/tick. In outline:
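Five engorged adult female R. microplus ticks injected into the abdomen with 1 μL of compound diluted in DMSO, then kept in a climate chamber. Fertile egg deposition checked after 7 days; eggs without visible fertility held until hatching at about 42 days. Efficacy: 100% = all eggs infertile, 0% = all fertile.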

Assay [6] relates to Diabrotica balteata. The experiment in a line: Diabrotica balteata spray test. The conditions noted are these: 168 h, wheat seeds, larvae, after 7 days, read-out: activity (efficacy: 100% means all seedlings have grown up like in the untreated, uninfected control); for pest or weed control at 32 µg/disc, 100 g/ha: application rate 100 g/ha (=32 μg/well); for pest or weed control at 160 µg/disc, 500 g/ha: application rate 500 g/ha (=160 μg/well). In outline: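 Wheat seedlings, germinated 1 day on agar, were sprayed with compound in acetone/DMF diluted in water containing emulsifier, then infested with 10-20 Diabrotica balteata larvae. After 7 days efficacy in % was scored: 100% means seedlings grew like the untreated, uninfected control; 0% means none grew.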

Assay [7] deals with Ctenocephalides felis. The experiment in a line: Ctenocephalides felis oral test (CTECFE Oral). The settings on record: 48 h, read-out: activity (mortality). The essentials:
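About 20 unfed adult cat fleas fed through parafilm on cattle blood containing compound (DMSO concentrate diluted in blood to the desired concentration). Blood held at 37 °C, fleas at room temperature. Mortality (%) scored after 2 days.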

Assay [8] relates to Myzus persicae. The experiment in a line: Myzus persicae spray test. The conditions noted are these: in Brassica rapa, foliar, 120 h; for mortality at 100 g/ha: read-out: activity (mortality), application rate 100 g/ha, spray, Chinese cabbage leaf disks, after 5 days. Here is the method:
Myzus persicae—Spray Test Solvent: 78.0 parts by weight acetone • 1.5 parts by weight dimethylformamide Emulsifier: alkylarylpolyglycol ether To produce a suitable preparation of active compound, 1 part by weight of active compound is mixed with the stated amount of solvents and is diluted with water, containing an emulsifier concentration of 1000 ppm, to the desired concentration. Further test concentrations are prepared by dilution with emulsifier containing water.
Chinese cabbage (Brassica pekinensis) leaf disks infected with all instars of the green peach aphid (Myzus persicae), are sprayed with a preparation of the active ingredient of the desired concentration.
After 5 days mortality in % is determined. 100% means all aphids have been killed and 0% means none of the aphids have been killed.

For assay [9], the system named is Myzus persicae. The experiment in a line: Myzus persicae oral test. The conditions noted are these: 120 h, read-out: activity (mortality). The essentials: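 Percent mortality was recorded at day 5, where 0% means no aphids killed. Compound prepared from an acetone concentrate diluted in water and combined with IPL41 medium containing sugar was offered to mixed-stage green peach aphids, which sucked it through a parafilm seal.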

Assay [10] concerns Nezara viridula. The experiment in a line: Nezara viridula spray test. The conditions noted are these: in Hordeum vulgare, 96 h, barley plants, larvae, after 4 days; for mortality at 100 g/ha: application rate 100 g/ha. The essentials:
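Barley plants infested with N. viridula larvae were sprayed with compound in acetone/DMF diluted with water containing 1000 ppm alkylarylpolyglycol ether emulsifier. Mortality (%) was scored after 4 days; 100% means all bugs killed, 0% none.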

The test system of assay [11] is Ctenocephalides felis. The experiment in a line: Ctenocephalides felis in-vitro contact test, adult cat flea (CTECFE Cont). The conditions noted are these: application rate 5 μg/cm^2 (=500 g/ha), adult cat fleas, after 48 hours, read-out: activity (efficacy: 100% means all fleas are dead or moribund). In outline: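 Acetone solutions coated on glass tube inner walls (900 ppm giving 5 μg/cm^2), then 5-10 adult fleas added and held 48 h at room temperature. Fleas unable to escape a 45-50° C. heating plate within 5 min scored dead or moribund; efficacy = % dead/moribund.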

Take `C[C@H](NC(=O)c1ccc(Cl)c(C(F)(F)F)c1)c1ncnn1-c1ccc(C#N)cn1` [II-10]: in assay [1] (surface concentration 4 mg/m^2, glazed tile), the mortality at 4 mg/m2 fell in the range of 80 to 100%. Besides, the mortality at 20 mg/m2 in [1] (surface concentration 20 mg/m^2, glazed tile) was in the range of 80 to 100%. Moreover, in assay [2], the pest or weed control at 1 µg/cm2, 100 g/ha amounted to 80% and the pest or weed control at 5 µg/cm2, 500 g/ha was 100%. The pest or weed control at 5 µg/cm2 in assay [3] turned out to be 100%. In assay [4], the mortality at 100 g/ha stood at 100% and the mortality at 500 g/ha stood at 100%. For the same compound, in assay [5], the pest or weed control at 0.004 mg came out at 100% and the pest or weed control at 0.02 mg was 100%. In [6], the pest or weed control at 32 µg/disc, 100 g/ha stood at 100% and the pest or weed control at 160 µg/disc, 500 g/ha turned out to be 100%. The mortality at 100 ppm in assay [7] was 100%.
For `CC(C)CN(C)C(=O)c1ccc(-n2ncnc2[C@H](C)NC(=O)c2cc(Cl)cc(C(F)(F)F)c2)nc1` [II-71], the mortality at 100 g/ha in assay [8] worked out at 90%. Also, the mortality at 500 g/ha in assay [8] (read-out: activity (mortality), application rate 500 g/ha, spray, Chinese cabbage leaf disks, after 5 days) came out at 90%; in [4], 100%; in assay [10] (application rate 500 g/ha) it was 100%. In addition, the pest or weed control at 5 µg/cm2, 500 g/ha in [2] is 100%. In addition, the pest or weed control at 5 µg/cm2 in assay [3] and in assay [11] was 100% each time. The pest or weed control at 0.004 mg in [5] turned out to be 100%. Moreover, in assay [5], the pest or weed control at 0.02 mg was determined as 100%. In addition, in assay [9], the mortality at 4 ppm stood at 90%. In assay [6], the pest or weed control at 32 µg/disc, 100 g/ha worked out at 100%. The pest or weed control at 160 µg/disc, 500 g/ha in [6] amounted to 100%.
For `Cc1nc([C@H](C)NC(=O)c2cc(C(F)(F)F)cc(C(F)(F)F)c2)n(-c2ccc(C(=O)N(C)CC3CC3)cn2)n1` [II-91], the mortality at 100 g/ha in assay [8], in assay [4] and in assay [10] was 100% throughout. Moreover, in [2], the pest or weed control at 1 µg/cm2, 100 g/ha turned out to be 100%. The pest or weed control at 5 µg/cm2, 500 g/ha in assay [2] is 100%. In addition, the pest or weed control at 5 µg/cm2 in [3] and in assay [11] was 100% throughout. Moreover, the pest or weed control at 0.004 mg in assay [5] came to 100%. For the same compound, the mortality at 0.8 ppm in assay [9] amounted to 100%. The mortality at 4 ppm in [9] came to 100%. The pest or weed control at 32 µg/disc, 100 g/ha in assay [6] came to 100%. Also, the mortality at 100 ppm in assay [7] was determined as 100%.
Turning to `Cc1nc([C@H](C)NC(=O)c2cc(C(F)(F)F)cc(C(F)(F)F)c2)n(-c2ccc(C(=O)N(C)CC(F)(F)F)cn2)n1` [II-93], the mortality at 100 g/ha in assay [8] stood at 90%; in [4] it was 100%; in assay [10] it was 100%. Moreover, the pest or weed control at 1 µg/cm2, 100 g/ha in [2] worked out at 100%. In addition, the pest or weed control at 5 µg/cm2, 500 g/ha in assay [2] is 100%. The pest or weed control at 5 µg/cm2 in [3] came out at 100%; in assay [11] it was 90%. Moreover, the pest or weed control at 0.004 mg in assay [5] was 100%. Also, the mortality at 4 ppm in [9] worked out at 100%. Besides, the pest or weed control at 32 µg/disc, 100 g/ha in assay [6] was 100%. For the same compound, the mortality at 100 ppm in assay [7] amounted to 90%.
Consider `Cc1nc([C@H](C)NC(=O)c2cc(C(F)(F)F)cc(C(F)(F)F)c2)n(-c2ccc(C(=O)N(C)CC(C)C)cn2)n1` [II-94], for which the mortality at 100 g/ha in [8] came to 90%; in assay [10], 100%. In assay [2], the pest or weed control at 1 µg/cm2, 100 g/ha turned out to be 100%. Besides, the pest or weed control at 5 µg/cm2, 500 g/ha in assay [2] stood at 100%. For the same compound, the pest or weed control at 5 µg/cm2 in assay [3] and in assay [11] was 100% each time. The pest or weed control at 0.004 mg in [5] came to 100%. In addition, in assay [9], the mortality at 4 ppm turned out to be 100%. In addition, in assay [6], the pest or weed control at 32 µg/disc, 100 g/ha is 100%. Besides, the mortality at 100 ppm in assay [7] was 90%.
As for `Cc1nc([C@H](C)NC(=O)c2cc(F)cc(C#N)c2)n(-c2ccc(C#N)cn2)n1` [II-105], the mortality at 100 g/ha came out at 90% in assay [8], 100% in assay [4] and 100% in assay [10]. For the same compound, the pest or weed control at 1 µg/cm2, 100 g/ha in assay [2] turned out to be 100%. The pest or weed control at 5 µg/cm2, 500 g/ha in assay [2] amounted to 100%. Also, the pest or weed control at 5 µg/cm2 in assay [3] and in assay [11] was 100% each time. Further, the pest or weed control at 0.004 mg in assay [5] came to 100%. In assay [9], the mortality at 4 ppm is 100%. Besides, in [6], the pest or weed control at 32 µg/disc, 100 g/ha amounted to 100%. In addition, in assay [7], the mortality at 100 ppm turned out to be 100%.
In the case of `Cc1nc([C@H](C)NC(=O)c2cc(OC(F)F)cc(C(F)F)c2)n(-c2ccc(C#N)cn2)n1` [II-113], the figures for the mortality at 100 g/ha in [8], in assay [4] and in assay [10] were 90%, 100% and 100%, respectively. Also, in assay [2], the pest or weed control at 1 µg/cm2, 100 g/ha came out at 80%. Further, in assay [2], the pest or weed control at 5 µg/cm2, 500 g/ha came out at 100%. The pest or weed control at 5 µg/cm2 in assay [3] and in assay [11] was 100% throughout. In addition, the pest or weed control at 0.004 mg in [5] came to 100%. For the same compound, in assay [9], the mortality at 0.8 ppm came to 100%. For the same compound, the mortality at 4 ppm in assay [9] amounted to 100%. In [6], the pest or weed control at 32 µg/disc, 100 g/ha is 100%. In addition, in [7], the mortality at 100 ppm stood at 100%.
`Cc1nc([C@H](C)NC(=O)c2cc(OC(F)F)cc(OC(F)F)c2)n(-c2ccc(C#N)cn2)n1` [II-115]: the mortality at 100 g/ha is 90% in assay [8], 100% in assay [4] and 100% in [10]. The pest or weed control at 5 µg/cm2, 500 g/ha in [2] was 100%. The pest or weed control at 5 µg/cm2 worked out at 100% in [3] and 90% in assay [11]. Also, the mortality at 0.8 ppm in [9] is 100%. The mortality at 4 ppm in [9] turned out to be 100%. Also, the pest or weed control at 32 µg/disc, 100 g/ha in assay [6] was found to be 100%.
